Reference: patent US7097860B2, “Method and composition for treatment of inflammatory and inflammation-related disorders” (priority 2001, dated 2006)

What was measured:
monkeys = monkeys from six months old, double the normal dose; cited from earlier work
inflammatory disorders = assay: Magnesium sulfate in distilled water by intraperitoneal injection in a cow; format: in vivo; conditions: approximately 40 grams, cow of 500 kg
Source text: After several years of using magnesium salts, the dose was reduced to an average dose of 3–20 grams for a 500 kg cow to get the same therapeutic effect. Therefore, the intraperitoneal administration, compared to other methods of drug administration, is a safe method because it avoids the toxic side effects through first-pass hepatic metabolism which permits the organism to create the abundance of magnesium used for recovery and healing. In fact, the administered dose can be higher than the traditional toxic level doses.

cow = assay: Solution / magnesium in complicated cases with intoxication; format: in vivo
Protocol: For example, during calving of weak and strong contractions of the uterus, atony of the rumen, reticulum and abamasum, colic and constipation. In fact, after administration of the solution, the effect can be seen even in complicated cases when intoxication takes place, the temperature of the body is increased, and there is loss of appetite. In this situation, the cow starts to ruminate and the general condition improves in 10 to 15 minutes after administration of the solution.

Dogs = conditions: up to 600 mg/kg IV, single dose; cited from earlier work
rats [1] = conditions: reproduction studies in rats; cited from earlier work
[2] = tested on: parturient paresis in cows (milk fever), ketosis (acetonomia), and paraplegia gravidarum; assay: Methenamine along with magnesium salts in parturient paresis, ketosis and paraplegia gravidarum; format: in vivo
Source text: Methenamine breaks down to formaldehyde and ammonia in areas of inflammation where formaldehyde acts as anti-inflammatory and bactericidal agent. Methenamine also increases membrane permeability, which helps to eliminate antibacterial toxic material from the body. […] After the fifteen minutes of administration, the condition of cows that had parturient paresis (milk fever), ketosis (acetonomia) started to improve and the cows began rumination again.

[3] = powder; cited from earlier work
rats [4] = conditions: up to 600 mg/kg IV, single dose; cited from earlier work
rabbits = conditions: reproduction studies in rabbits; cited from earlier work
[5] = after administration of magnesium

In the case of `C1N2CN3CN1CN(C2)C3` [Methenamine hippurate], the adverse effects (monkeys) is given as “without adverse effects”.

In the case of `O.O.O.O.O.O.O.O=S(=O)([O-])[O-].[Mg+2]` [magnesium sulfate, magnesium sulfate (MgSO4×7H2O)], the side effects (inflammatory disorders) is reported as “without any side effects” and the treatment outcome (inflammatory disorders) is reported as “successful treatment”.

In the case of `[Mg+2]` [magnesium], the “day of complete recovery” value (cow; [5]) is reported as “seventh”, the “day on which the general condition improved” value (cow; [5]) is reported as “third” and the “day of estrus after administration” value (cow; cows that previously did not have estrus) is reported as “seventh”.

For `C1N2CN3CN1CN(C2)C3` [methenamine, methenamine (hexamethylenetetramine, C6H12N4)], the toxic effects (Dogs) is listed as “without evidence of toxic effects”, the “harm to the fetus” value (rats [1]) is listed as “have not revealed evidence of harm to the fetus” and the treatment outcome ([2]; 20 grams per 500 kg, along with magnesium salts, other therapies unsuccessful) is listed as “successful treatment”. The “time after administration at which condition started to improve and rumination began” value ([2]; parturient paresis (milk fever), ketosis (acetonomia)) was “fifteen”, the solubility in water [3] was “very soluble in water” and the toxic effects (rats [4]) was “without evidence of toxic effects”. For the same molecule, the “harm to the fetus” value (rabbits) was “have not revealed evidence of harm to the fetus”.
